Measurements: US12209038B2, “Effluent” (LINCOLN UNIVERSITY, priority 2019, dated 2025)
Read-outs that look alike come from different tables or passages of the source.

Experiments:
[1] = Experiment 7: glass jars, different sulphate and/or iron compounds, methane and hydrogen sulphide
Procedure: The objective of Experiment 7 was to measure the effect of different sulphate and/or iron compounds on emissions of methane and hydrogen sulphide gases from treated effluent. The experiment was conducted using the same 1.5 L glass jars and methods of measurement described in Experiment 2 above. There were 10 treatments: (i) untreated FDE, (ii) PFS treated effluent, (iii) calcium sulphate (CaSO4) treated effluent, (iv) potassium sulphate (K2SO4) treated effluent, (v) aluminium sulphate (Al2(SO4)3) treated effluent, (vi) magnesium sulphate (MgSO4) treated effluent, (vii) sodium sulphate (Na2SO4) treated effluent, (viii), ferrous sulphate (i.e. the divalent form of iron sulphate) (FeSO4) treated effluent, (ix) ferric chloride (FeCl3) treated effluent, and (x) ferrous chloride (FeCl2) treated effluent. The sulphate treatment chemicals were all used at the same rate of sulphate as applied in the PFS treatment (326 mg SO4/L) and the iron treatment chemicals were all used at the same rate of iron as applied in the PFS treatment (133 mg Fe/L).

[2] = 200 mg Fe/L of FDE, same rate of PFS and FS
Procedure: The objective of Experiment 6 was to compare the effectiveness of ferric sulphate (FS) versus polyferric sulphate (PFS) to reduce methane emissions from treated effluent. Experiment 6 was conducted using the same large (3.5 m deep×0.5 m diameter) PVC pipes described in Experiment 5. The gas capture equipment and measurement process were also identical to that described in Experiment 5.
There were three treatments: (i) untreated FDE; (ii) TE produced using PFS and (iii) TE produced using FS. There were four replicates of each treatment set out in a randomised block design. Five hundred and sixty litres of farm dairy effluent were pumped from the FDE storage pond on Lincoln University Dairy Farm into each column leaving a head space height of 10 cm. The same rate of PFS and FS was used (200 mg Fe/L of FDE). The PFS and FS solution was mixed into the effluent for two minutes using a handheld electric drill fitted with a paddle stirrer.

[3] = iron chemicals at 133 mg Fe/L, same iron rate as PFS treatment

Row | Compound | amount of methane emitted from FDE [1] | effectiveness in reducing methane emitted compared with PFS [1] | emission of hydrogen sulphide (H2S) [1] | also measured
1 | O=S(=O)([O-])[O-].[Fe+2] [ferrous sulphate] | – | – | – | effectiveness in reducing methane emission compared with PFS [1]: not nearly as effective
2 | [Cl][Fe][Cl] [ferrous chloride] | – | – | – | effectiveness in reducing methane emission compared with PFS [1, 3]: not nearly as effective
3 | [Cl][Fe]([Cl])[Cl] [ferric chloride] | – | – | – | effectiveness in reducing methane emission compared with PFS [1, 3]: not nearly as effective
4 | O=S(=O)([O-])[O-].O=S(=O)([O-])[O-].O=S(=O)([O-])[O-].[Fe+3].[Fe+3] [FS, ferric sulphate] | – | – | – | effectiveness in reducing the methane emission flux compared with PFS [2]: equally as effective; effectiveness in reducing the total amount of methane emitted compared with PFS [2]: equally as effective
5 | O=S(=O)([O-])[O-].[Na+].[Na+] [sodium sulphate] | can be reduced | none of these chemicals were as effective as PFS | continued to produce, or enhanced the production of | –
6 | O=S(=O)([O-])[O-].[Ca+2] [calcium sulphate] | can be reduced | none of these chemicals were as effective as PFS | continued to produce, or enhanced the production of | –
7 | O=S(=O)([O-])[O-].[K+].[K+] [potassium sulphate] | can be reduced | none of these chemicals were as effective as PFS | continued to produce, or enhanced the production of | –
8 | O=S(=O)([O-])[O-].[Mg+2] [magnesium sulphate] | can be reduced | none of these chemicals were as effective as PFS | continued to produce, or enhanced the production of | –
